We go through 2 compounds from patent US20100291074A1, “CYCLOPHILIN D-AMYLOID BETA INTERACTION POTENTIATES MITOCHONDRIAL DYSFUNCTION IN A TRANSGENIC MOUSE MODEL OF ALZHEIMER'S DISEASE” (COLUMBIA UNIVERSITY IN THE CITY OF NEW YORK, priority 2007, published 2010).

The test relates to cultured cortical neurons. In words: Mitochondrial membrane potential (TMRM) in cultured neurons. Particulars: for TMRM-positive neurons after H2O2: H2O2 one hour, FACS. In kind it is cell-based, mice. As for the experimental part: FIGS. 5. […] (A) Western blot of cultured cortical neuron derived from nonTg and CypD-deficient mice was performed by specific α-CypD IgG. […] (F-G) FACS analysis of TMRM staining in nonTg and CypD−/− neurons treated with increasing concentrations of H2O2 for one hour. (G) Analyses of % TMRM positive neurons combined 3-4 independent experiments. […] (H-I) TMRM staining in H2O2-treated nonTg and CypD−/− neurons as shown by confocal microscopy in live cells. (J-L). FACS analysis of propidium iodide (PI) staining in nonTg and CypD−/−neurons treated with H2O2 for one hour. Percentages of PI-positive and -negative cells were shown as red line and black line, respectively.
Mitochondrial membrane potential […] was determined in primary cultured neuron derived from nonTg and Tg CypD−/− mice.
Murine cortical neurons were cultured as described. Briefly, murine cortex were dissected from Day 1 pups of nonTg and Tg CypD−/− mice, dissociated with 0.05% trypsin, and triturated in ice-cold Neurobasal A medium. Cells were then centrifuged at 200 g for 5 min to get rid of the debris. The resulting pellets were resuspended in culture medium (neurobasal A with 2% B27 supplement, 0.5 mM L-glutamine, 50 U/ml penicillin, and 50 μg/ml streptomycin) and plated onto poly-L-lysine-coated culture plates with an appropriate density. Aβ or H2O2 was added to the cultured medium at day 5 cultured neurons.
Primary cultured neurons derived from nonTg and CypD-deficient mice were incubated with 2 μM oligomeric Aβ, or H2O2 for various time points. The mitochondrial ROS was detected with 1 μM MitoSox staining The cytochrome c release was assessed by ELISA (Active Motif). Mitochondrial membrane potential was determined by TMRM labeling and analyzed by flow cytometry as described above. Apoptosis was assessed by TUNEL assay using in situ cell death detection kit (Roche).

“Also recorded” adds a separate entry of the source.

On to `N#CC(C#N)=NNc1ccc(OC(F)(F)F)cc1` [FCCP, carbonyl cyanide p-(trifluoromethoxy) phenylhydrazone], for which, under “FCCP (1 μM), nonTg and CypD−/− neurons”, the “mitochondrial membrane potential ΔΨm (TMRM)” value is “able to dissipate mitochondria ΔΨ; also recorded: dissipated membrane ΔΨm”.

In the case of `OO` [H2O2], the “TMRM-positive neurons after H2O2” value was 32% (CypD−/− neurons, from 73% before) and 5.5% (nonTg neurons, from 73.8% before).
